Experimental data reported in patent publication US5624673A, “Cosmetic or pharmaceutical composition containing a prunella extract” (priority 1993, dated 1997).
Several values for one entry are separate records, joined by “and”; a condition that tells them apart may be missing. Equal values may be shown once.

Tested on: erythema caused by ultraviolet
Assay: Anti-inflammatory activity on the erythema caused by ultraviolet
Assay type: in vivo, Dunkin Hartley guinea-pigs
Conditions: 1% in hydrocerine
Description: This is investigated using 41 female Dunkin Hartley guinea-pigs weighing 400 to 450 g, divided into 6 groups of 6 and one group of 5 guinea-pigs.
For one week before the start of the experiment, the animals are kept at a temperature of 20° plus or minus 1° C. and at a hygrometry of 50% plus or minus 10% and with 12 h of light per day. On the day before the experiment, the animals are carefully shaved on the back using an AESCULAP shaver equipped with a 1/10 mm comb, and then shaved gently on both sides using a Braun razor. A depilating cream is subsequently applied (to a thickness of about 2 mm) and allowed to work for 15 min.
The cream is removed with a wooden spatula and the guinea-pigs are then rinsed with tepid water and dried.
The guinea-pigs then receive the same irradiation on both sides, the area of the irradiated regions being 2 cm^2. The right side receives the test product, the product being spread beyond the 2 cm^2 so as to make it possible to observe any redness which might be due to the product and which would mask an antiphlogistic effect. The left side receives the placebo.
Application of the placebo to the left side enables the effect of UV to be measured under the same conditions on the zones treated with the product and on the untreated zones. This also makes it possible to see any action of the placebo and to assess, in comparison with the placebo, the zone to which the product has been applied.
The products are applied immediately after irradiation and then every 2 h up to 6 h after irradiation.
The amount applied is not measured but is spread uniformly over the whole region (about 1 mg).
The irradiation device used consists of a Biotronic UV312-365 mercury lamp (Vilbert-Loumat). The device for measuring the UV energy, which consists of a photoelectric cell measuring the luminous power of the UV, is fixed to a support at the center of the irradiated zone. This cell is connected to a radiometer on which the desired energy--in this case 2.16 J/cm^2 of UVB (distance from guinea-pig to lamp=20 cm)--is programmed. The lamp switches off automatically once the total amount of energy has been emitted.
This irradiation causes an erythema equal to 3 plus or minus 0.5 (see scale) at 6 h.
20 min before irradiation, the animals are anesthetized with an intraperitoneal dose of 0.5 ml/kg of pentobarbital sodium.
Six hours after irradiation, the erythema in each region is evaluated macroscopically according to the following scale:
0 ............... no erythema
1 ............... slight but visible erythema
2 ............... clearly visible erythema
3 ............... substantial erythema
One guinea-pig with a score of 1 according to the above notation, one guinea-pig with a score of 2 and one guinea-pig with a score of 3 are singled out after having been thoroughly evaluated as such, and are taken as standard references so that half-unit scores can be awarded. A guinea-pig not evaluated with 1 (standard reference) and not evaluated with 2 will be given a score of 1.5.
The results obtained are used to calculate the percentage activity according to the following formula: [formula]
The tested extracts according to the invention are in a concentration of 0.2% by weight in the gel. The indomethacin is in a concentration of 1% in the hydrocerine.

COc1ccc2c(c1)c(CC(=O)O)c(C)n2C(=O)c1ccc(Cl)cc1 [Indomethacin, indomethacin]
difference (UV+placebo)-(UV+product), individual animal: 2.5 and 2 and 3 | Erythema score, product side (individual animal) (6 h after UVB 2.16 J/cm^2, scale 0-3): 0.5 and 1 and 0 | Erythema score, product side, mean (SD 0.41, placebo mean 2.9, significant at 0.1% (Student t 11.18)): 0.4 | difference (UV+placebo)-(UV+product), mean (SD 0.5): 2.5 | protection (percentage activity) (significant at 0.1%): 86.2%
